Key:
[1] = Stability tests of imine quat in the presence of hydrogen peroxide at various pH (1H NMR integral ratio; permanganate titration); type: physicochemical
Description: The stability of N-methyl-3,4 dihydroisoquinolinium tosylate in the presence of hydrogen peroxide was tested at various pH values. To this end samples were prepared containing 6.0% w/w hydrogen peroxide, 2.0% w/w of the imine quat and 0.01% w/w Dequest™ 2047 (ethylenediamine-tetra[methylene-phosphonic acid] sodium salt, a sequestrant marketed by Monsanto). This is equivalent to a partial composition which together with a second partial composition of the same volume would lead to a final composition with 3% hydrogen peroxide and 1% imine quat.
The pH of the samples was adjusted using 1.0M hydrochloric acid or 2.0M sodium hydroxide as required. During the test the pH of the samples was re-adjusted as indicated using 2.0M sodium hydroxide.
The hydrogen peroxide content was determined by titration against 0.02 M potassium permanganate. […] Complete reaction of 1 equivalent of hydrogen peroxide with 1 equivalent of imine quat would result in a decrease in hydrogen peroxide concentration of 0.2% w/w.
Imine quat stability was monitored using ^1H NMR spectroscopy, by comparing the ratio of the integrals of the iminium proton which appears at 8.85 ppm relative to TMS, with those for the aromatic protons on the inert tosylate counter-ion, which are observed at 7.65 ppm. Loss of imine quat (e.g. through reaction with hydrogen peroxide) is observed as a decrease in the iminium:tosylate integral ratio, and % of imine quat remaining is calculated as integral ratio after storage÷initial integral ratio.

[2] = system: black mould (Cladosporium cladosporoides), autoclaved mould paste; assay: Bleaching of autoclaved black mould paste on porous ceramic tiles, expert panel score 0-6
Description: Hydrogen peroxide solutions with and without imine quat (N-methyl-3,4-dihydroisoquinolinium tosylate) and at various pH values were tested on their ability to bleach black mould in comparison with sodium hypochlorite, which is the standard product used to clean black mould stains. The hydrogen peroxide solutions were all freshly prepared just before testing so as to mimic compositions obtained by mixing appropriate partial compositions on dispensing. In order to obtain reproducible results an autoclaved mould paste was used for the testing.
Cultures of hyphal Cladosporium cladosporoides were prepared on agar jelly. Warm water was used to dissolve the jelly and separate it from the mould hyphae, which were then autoclaved. […]
Small circular pieces of single ply tissue paper were cut to a convenient size and placed on the surface of the ‘mould tile’ test pieces, such that the edges of the test pieces remain uncovered. A fixed quantity of the test solution was allowed to drop onto the surface of the tissue and allowed to soak into the tile. […]
Test pieces were assessed for the level of mould bleaching by an expert panel, using a integer scale running from 0 (no decolorisation) to 6 (complete bleaching). Panel test data for each system was collated and analysed statistically to provide mean scores for each test system. […]

[3] = Bleaching of tea stained cotton cloth (reflectance); conditions: pH 10.0 or higher, vs 1% sodium hypochlorite pH 12
Text: Tea stained cotton (BC-1) cloth is routinely used in the assessment of laundry bleaches. Here the method was adapted as an easy and readily reproducible indicator of the activity of the composition against a common hydrophilic household soil in comparison with a standard hypochlorite bleach.
Lengths of pre-stained BC-1 cotton cloth was cut into square swatches (2 cm×2 cm). For each composition four replicate cloths were placed in the bottom of a clean glass beaker and covered with the cleaning composition at room temperature. After the required contact time (generally 2 or 5 minutes) had elapsed, the cloths were removed from the cleaning solution using tweezers and immediately immersed in distilled water. The cloths were stirred in the water, and the washing procedure repeated twice more using fresh water each time. Washed cloths were then pressed between two filters to remove excess water and placed on fresh filter papers, in the dark, to dry.
Reflectance measurements were carried out on a Spectraflash 400 instrument. ΔR measurements were calculated using ‘40ptspec’ software, using a portion of untreated cloth from the same BC-1 cloth batch as a standard. Results obtained from each of the four replicate test cloths were then statistically analysed to obtain mean ΔR values for each bleach system.

[4] = Stability tests of imine quat in the presence of hydrogen peroxide at various pH (1H NMR integral ratio; permanganate titration); type: physicochemical; conditions: pH 8, without hydrogen peroxide, 2% imine quat, three days after preparation
[5] = target pH 5.5, 0 days storage, sample 6.0% H2O2 + 2.0% imine quat
[6] = target pH 5.5, 148 days storage
[7] = target pH 6.0, 148 days storage
[8] = target pH 6.5, 148 days storage
[9] = target pH 7.0, 148 days storage
[10] = target pH 7.5, 148 days storage

## C[N+]1=Cc2ccccc2CC1.Cc1ccc(S(=O)(=O)[O-])cc1 [Imine Quat, N-methyl-3,4-dihydroisoquinolinium tosylate]
[1]; pH 8, in the presence of 6% hydrogen peroxide, 4 hours after preparation
  % of the original amount of imine quat still detectable: 5%
[1]; pH 8, in the presence of 6% hydrogen peroxide, one day after preparation
  imine quat detectable: no imine quat was detectable
[1]; [5]
  % Imine Quat remaining: 100%
[1]; [6]
  % Imine Quat remaining: 93%
[1]; target pH 6.0, 0 days storage
  % Imine Quat remaining: 100%
[1]; [7]
  % Imine Quat remaining: 83%
[1]; target pH 6.5, 0 days storage
  % Imine Quat remaining: 100%
[1]; [8]
  % Imine Quat remaining: 67%
[1]; target pH 7.0, 0 days storage
  % Imine Quat remaining: 100%
[1]; [9]
  % Imine Quat remaining: 43%
[1]; target pH 7.5, 0 days storage
  % Imine Quat remaining: 100%
[1]; [10]
  % Imine Quat remaining: 33%
[2]; pH 10.5 and 11.0
  effect of adding Imine Quat on mould bleaching over hydrogen peroxide: significant improvement in performance
[3]
  effect of adding Imine Quat on tea stain bleaching: boosts the performance of hydrogen peroxide to values very close to those observed using hypochlorite
[4]
  % of the original amount of imine quat remaining: 5%

## OO [hydrogen peroxide, reference compound]
[1]; [5]
  % hydrogen peroxide: 6.00%
[1]; [6]
  % hydrogen peroxide: 5.99%
[1]; target pH 6.0, 0 days storage
  % hydrogen peroxide: 6.00%
[1]; [7]
  % hydrogen peroxide: 5.95%
[1]; target pH 6.5, 0 days storage
  % hydrogen peroxide: 6.00%
[1]; [8]
  % hydrogen peroxide: 5.89%
[1]; target pH 7.0, 0 days storage
  % hydrogen peroxide: 6.00%
[1]; [9]
  % hydrogen peroxide: 5.84%
[1]; target pH 7.5, 0 days storage
  % hydrogen peroxide: 6.00%
[1]; [10]
  % hydrogen peroxide: 5.69%
[2]; pH 5.5
  mould bleaching performance: ineffective

— patent US6391840B1, “Multiple component bleaching compositions” (Unilever Home & Personal Care USA, division of Conopco, Inc., priority 1999, dated 2002)
